# Like-named read-outs stand apart in the source and are kept apart here.
# How the values were obtained:
# [1] = test system: SW620 colon carcinoma cells; experiment: MTS cytotoxicity assay, ET-743 with or without PARP inhibitor; type: cell-based; settings: for increased sensitization of cells to ET-743: SW620, PARP inhibitor (nicotinamide 10 mM or NU1025 100 μM) plus ET-743 versus ET-743 alone; for IC50: 72 hours, MTS
# Procedure: Four hours later, media containing ET-743 and the PARP inhibitor was washed out and replaced with another fixed dose of PARP inhibitor. Finally, 4 hours later, a final fixed dose of PARP inhibitor was added. 72 hours following the initial treatment, an MTS cytotoxicity assay was performed.
# PARP = PARP (Homo sapiens, UniProt P09874); settings: cited from earlier work
# [2] = test system: PARP-1 +/+ and −/− mouse embryonic fibroblasts (MEFs); experiment: MTS cytotoxicity assay in PARP-1 +/+ and −/− MEFs; type: cell-based; settings: PARP-1 −/− versus +/+ MEFs, 72 hours after treatment
# Procedure: PARP-1 +/+and −/− mouse embryonic fibroblasts (MEFs) were seeded into 96-well plates at a density of 5,000 cells/well. After 24 hours, cells were treated with serially diluted concentrations of ET-743. 72 hours following the initial treatment, an MTS (3-(4,5-dimethylthiazol-2-yl)-5([…])-2-(4-sulfophenyl)-2H-tetrazolium) cytotoxicity assay was performed. Results were plotted as percent cellular viability versus ET-743 or Zalypsis® concentration (FIGS. 1a and 1b, respectively).
# Chain of PARP (P09874 whole entry): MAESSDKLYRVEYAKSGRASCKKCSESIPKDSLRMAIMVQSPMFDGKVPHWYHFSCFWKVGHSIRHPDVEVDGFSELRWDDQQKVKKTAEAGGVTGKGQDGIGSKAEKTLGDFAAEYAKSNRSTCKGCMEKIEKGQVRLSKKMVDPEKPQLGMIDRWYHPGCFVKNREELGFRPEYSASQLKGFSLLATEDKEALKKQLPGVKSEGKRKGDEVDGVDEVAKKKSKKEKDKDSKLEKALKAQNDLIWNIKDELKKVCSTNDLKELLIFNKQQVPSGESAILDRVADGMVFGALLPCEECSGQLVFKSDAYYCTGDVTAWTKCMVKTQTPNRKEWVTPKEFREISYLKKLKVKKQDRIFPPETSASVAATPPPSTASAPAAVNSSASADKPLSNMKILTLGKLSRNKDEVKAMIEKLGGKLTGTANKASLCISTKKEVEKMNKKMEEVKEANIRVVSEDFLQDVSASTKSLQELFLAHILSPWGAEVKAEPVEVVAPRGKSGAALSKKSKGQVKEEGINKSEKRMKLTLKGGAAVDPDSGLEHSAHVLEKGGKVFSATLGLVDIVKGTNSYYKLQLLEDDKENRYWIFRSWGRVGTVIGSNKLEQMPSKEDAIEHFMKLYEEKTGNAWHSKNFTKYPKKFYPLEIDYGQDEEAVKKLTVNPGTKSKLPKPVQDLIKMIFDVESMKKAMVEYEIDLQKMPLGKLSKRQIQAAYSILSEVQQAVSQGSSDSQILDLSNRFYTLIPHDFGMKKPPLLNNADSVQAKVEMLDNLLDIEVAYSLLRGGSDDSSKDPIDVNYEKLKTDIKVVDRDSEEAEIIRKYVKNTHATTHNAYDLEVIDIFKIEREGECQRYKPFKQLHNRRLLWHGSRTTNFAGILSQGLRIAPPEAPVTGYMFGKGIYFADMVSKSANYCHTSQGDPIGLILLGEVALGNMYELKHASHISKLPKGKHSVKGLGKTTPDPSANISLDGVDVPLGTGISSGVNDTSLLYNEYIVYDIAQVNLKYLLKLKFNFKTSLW
smiles,measurement,setting,value
Cc1nc2c(O)cccc2c(=O)[nH]1 [NU1025],"cytotoxicity, PARP inhibitor treatment alone","[1]; SW620, NU1025 alone (100 μM), versus untreated cells",no increased level of cytotoxicity above the untreated cells
same,increased sensitization of cells to ET-743,[1],4.8 fold
same,potency as PARP inhibitor relative to nicotinamide,PARP,"up to 1,000 times"
"COc1cc2c(cc1O)CCN[C@]21CS[C@@H]2c3c(OC(C)=O)c(C)c4c(c3[C@H](COC1=O)N1[C@@H]2[C@H]2c3c(cc(C)c(OC)c3O)C[C@@H]([C@@H]1O)N2C)OCO4 [ET-743, Ecteinascidin-743]",IC50,"[1]; Homo sapiens, SW-620, SW620, ET-743 alone, NU1025 experiment, read-out: IC50 ET-743 alone (FIG. 2b)",1.8 nM
same,IC50,"[1]; Homo sapiens, SW-620, SW620, ET-743 alone, nicotinamide experiment, read-out: IC50 ET-743 alone (FIG. 2a)",2 nM
same,IC50,"[1]; Homo sapiens, SW-620, SW620, NU1025 100 μM, 2 hour pre-treatment and repeated fixed doses, read-out: IC50 ET-743 in combination with NU1025 (FIG. 2b)",0.37 nM
same,IC50,"[1]; Homo sapiens, SW-620, SW620, nicotinamide 10 mM, 2 hour pre-treatment and repeated fixed doses, read-out: IC50 ET-743 in combination with nicotinamide (FIG. 2a)",0.41 nM
same,increase in cellular sensitivity on loss of PARP-1,[2],~30 fold
NC(=O)c1cccnc1 [nicotinamide],inhibition at 10000 µM,"[1]; Homo sapiens, SW-620, SW620, nicotinamide alone (10 mM), read-out: cell death, PARP inhibitor treatment alone",~20%
same,increased sensitization of cells to ET-743,[1],4.9 fold
COc1c(C)cc2c(c1O)[C@@H]1[C@@H]3Cc4c(OC(C)=O)c(C)c5c(c4[C@H](CNC(=O)/C=C/c4cccc(C(F)(F)F)c4)N3[C@@H](O)[C@H](C2)N1C)OCO5 [Zalypsis®],increase in cellular sensitivity on loss of PARP-1,[2],110 fold

# Source: patent US20090170860A1, “Use of PARP-1 Inhibitors” (PHARMA MAR, S.A., SOCIEDAD UNIPERSONAL, priority 2005, published 2009)
